Reference: the NIST ThermoML archive (doi:10.1021/acs.jced.6b00867)
Numbers after ± are expanded uncertainties.

Experiments:
[1] = refractive index (Na D-line) (dimensionless); conditions: 101 kPa, Liquid, Standard Abbe refractometry
[2] = 352.2 K; Liquid; Ebulliometric method (Recirculating still)
[3] = refractive index (Na D-line) (dimensionless); xn = mol fraction of the nth substance listed; conditions: 101 kPa, Liquid, Standard Abbe refractometry

CC1CCC(=O)O1 (stereo not drawn) [γ-valerolactone]
[1]
Conditions	refractive index
293.2 K	1.4339 ± 0.0004
298.2 K	1.4316 ± 0.0004

O=CO [formic acid]
[1]
Conditions	refractive index
293.2 K	1.3714 ± 0.0004
298.2 K	1.3699 ± 0.0004

Conditions	vapor or sublimation pressure [kPa]
[2]	51 ± 4

CC1CCC(=O)O1 (stereo not drawn) [γ-valerolactone] + O=CO
refractive index, [3]
Conditions	293.2 K	298.2 K
x2 = 0	1.4339 ± 0.0004	1.4316 ± 0.0004
x2 = 0.0697	1.4314 ± 0.0004	1.4292 ± 0.0004
x2 = 0.1233	1.4295 ± 0.0004	1.4272 ± 0.0004
x2 = 0.2013	1.4265 ± 0.0004	1.4245 ± 0.0004
x2 = 0.3394	1.421 ± 0.0004	1.4191 ± 0.0004
x2 = 0.4898	1.4138 ± 0.0004	1.4118 ± 0.0004
x2 = 0.593	1.4078 ± 0.0004	1.4058 ± 0.0004
x2 = 0.6258	1.4056 ± 0.0004	1.4036 ± 0.0004
x2 = 0.6744	1.4021 ± 0.0004	1.4002 ± 0.0004
x2 = 0.7799	1.3941 ± 0.0004	1.3921 ± 0.0004
x2 = 0.8539	1.3875 ± 0.0004	1.3856 ± 0.0004
x2 = 0.8902	1.3839 ± 0.0004	1.3821 ± 0.0004
x2 = 0.9828	1.3739 ± 0.0004	1.3719 ± 0.0004

O=CO [formic acid] + CC1CCC(=O)O1
[3], x1 = 1
Conditions	refractive index
293.2 K	1.3714 ± 0.0004
298.2 K	1.3699 ± 0.0004
